Reference: patent US7446117B2, “Cox-2 inhibiting pyridine derivatives” (Glaxo Group Limited, priority 2002, dated 2008)

Target: T1, microsomal h-COX2 (Homo sapiens, UniProt P35354)
T1 construct: made in house; host or cells: baculovirus infected SF9 cells (microsomal preparation)
T1 sequence (P35354 18-604): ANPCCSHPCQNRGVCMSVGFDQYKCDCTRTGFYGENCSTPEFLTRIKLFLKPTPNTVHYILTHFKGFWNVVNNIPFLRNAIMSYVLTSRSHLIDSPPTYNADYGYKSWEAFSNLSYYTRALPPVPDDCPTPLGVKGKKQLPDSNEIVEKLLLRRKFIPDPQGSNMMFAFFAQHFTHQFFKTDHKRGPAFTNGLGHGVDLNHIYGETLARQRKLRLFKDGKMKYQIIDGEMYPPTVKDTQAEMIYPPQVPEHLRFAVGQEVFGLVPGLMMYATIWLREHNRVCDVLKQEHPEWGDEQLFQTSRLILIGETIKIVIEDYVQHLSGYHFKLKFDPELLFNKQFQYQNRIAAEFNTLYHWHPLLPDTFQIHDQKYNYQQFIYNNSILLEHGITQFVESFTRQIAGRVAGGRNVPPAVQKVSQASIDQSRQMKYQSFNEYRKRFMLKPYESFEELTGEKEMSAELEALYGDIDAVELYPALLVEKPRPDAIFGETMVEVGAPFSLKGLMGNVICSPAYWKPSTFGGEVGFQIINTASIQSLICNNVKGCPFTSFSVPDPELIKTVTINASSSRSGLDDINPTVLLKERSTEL
Experiment: Microsomal assay: inhibitory activity against microsomal h-COX2
Type: biochemical
Conditions: microsomal preparation from baculovirus infected SF9 cells; 1 hour incubation with compound; 0.1 μM arachidonic acid, 10 minutes; PGE2 by EIA; read-out: IC50 values for inhibition of COX-2
Experimental: Biological Data Microsomal Assay
Inhibitory activity against microsomal h-COX2 was assessed against a microsomal preparation from baculovirus infected SF9 cells. An aliquot of microsomal preparation was thawed slowly on ice and a 1/40,000 dilution prepared from it into the assay buffer (sterile water, degassed with argon containing 100 mM HEPES (pH 7.4), 10 mM EDTA (pH7.4), 1 mM phenol, 1 mM reduced glutathione, 20 mg/ml gelatin and 0.001 mM Hematin). Once diluted the enzyme solution was then sonicated for 5 seconds (Branson sonicator, setting 4, 1 cm tip) to ensure a homogeneous suspension. 155 μl enzyme solution was then added to each well of a 96-well microtitre plate containing either 5 μl test compound (40× required test concentration) or 5 μl DMSO for controls. Plates were then mixed and incubated at room temperature for 1 hour. Following the incubation period, 40 μl of 0.5 μM arachidonic acid was added to each well to give a final concentration of 0.1 μM. Plates were then mixed and incubated for exactly 10 minutes (room temperature) prior to addition of 25 μl 1M HCl (hydrochloric acid) to each well to stop the reaction. 25 μl of 1M NaOH (sodium hydroxide) was then added to each well to neutralise the solution prior to determination of PGE2 levels by enzyme immunoassay (EIA).

SMILES	IC50 [nM]
CCc1cc(NC2CCOCC2)nc(-c2ccc(S(C)(=O)=O)cc2)c1 [Example 89, 4-Ethyl-6-[4-(methylsulfonyl)phenyl]-N-(tetrahydro-2H-pyran-4-yl)pyridine-2-amine]	≤ 500
CS(=O)(=O)c1ccc(-c2cc(CF)cc(NC3CCCCC3)n2)cc1 [Example 92]	≤ 500
CCc1cc(NCc2ccccc2)nc(-c2ccc(S(C)(=O)=O)cc2)c1 [Example 93]	≤ 500
Cc1cc(N[C@@H](C)c2ccccc2)nc(-c2ccc(S(C)(=O)=O)cc2)c1 [Example 94]	≤ 500
Cc1cc(NCc2ccccc2C)nc(-c2ccc(S(C)(=O)=O)cc2)c1 [Example 95]	≤ 500
CCc1cc(OCc2ccccc2)nc(-c2ccc(S(C)(=O)=O)cc2)c1 [Example 96]	≤ 500
Cc1cc(NCc2ccc(C)nc2)nc(-c2ccc(S(C)(=O)=O)cc2)c1 [Example 98]	≤ 500
CCc1cc(Nc2ccc(C)nc2)nc(-c2ccc(S(C)(=O)=O)cc2)c1 [Example 99]	≤ 500
CCc1cc(OCc2cccnc2)nc(-c2ccc(S(C)(=O)=O)cc2)c1 [Example 101]	≤ 500
CCc1cc(NCc2cnccn2)nc(-c2ccc(S(C)(=O)=O)cc2)c1 [Example 103]	≤ 500
CS(=O)(=O)c1ccc(-c2cc(CF)cc(NCc3ccccc3)n2)cc1 [Example 104]	≤ 500
CCc1cc(Nc2ccc(F)cc2)nc(-c2ccc(S(C)(=O)=O)cc2)c1 [Example 105]	≤ 500
CCc1cc(NCc2nccn2C)nc(-c2ccc(S(C)(=O)=O)cc2)c1 [Example 108]	≤ 500
CCc1cc(NCc2[nH]cnc2C)nc(-c2ccc(S(C)(=O)=O)cc2)c1 [Example 109]	≤ 500
Cc1cc(-c2ccc(S(C)(=O)=O)cc2)nc(N(C)Cc2nccn2C)c1 [Example 110]	≤ 500
CCn1ccnc1CNc1cc(C)cc(-c2ccc(S(C)(=O)=O)cc2)n1 [Example 112]	≤ 500
Cc1cc(NCc2cn(C)nc2C)nc(-c2ccc(S(C)(=O)=O)cc2)c1 [Example 113]	≤ 500
Cc1cc(NCc2cnn(C)c2C)nc(-c2ccc(S(C)(=O)=O)cc2)c1 [Example 114]	≤ 500
CCc1cc(NCc2cnn(C)c2)nc(-c2ccc(S(C)(=O)=O)cc2)c1 [Example 115]	≤ 500
CCc1cc(OCc2ccnn2C)nc(-c2ccc(S(C)(=O)=O)cc2)c1 [Example 116]	≤ 500
CCc1cc(NCc2cccs2)nc(-c2ccc(S(C)(=O)=O)cc2)c1 [Example 120]	≤ 500
Cc1cc(NCc2cc(C)ns2)nc(-c2ccc(S(C)(=O)=O)cc2)c1 [Example 123]	≤ 500
Cc1cc(NCc2nc(C)cs2)nc(-c2ccc(S(C)(=O)=O)cc2)c1 [Example 124]	≤ 500

SMILES	IC50 [nM]
Cc1cc(NCc2csnc2C)nc(-c2ccc(S(C)(=O)=O)cc2)c1 [Example 125]	≤ 500
Cc1cc(NCc2cnn(CF)c2)nc(-c2ccc(S(C)(=O)=O)cc2)c1 [Example 126]	≤ 500
CCN(Cc1ccccc1)c1cc(C)cc(-c2ccc(S(C)(=O)=O)cc2)n1 [Example 128]	≤ 500
CCc1cc(NCc2ccc(C)cc2)nc(-c2ccc(S(C)(=O)=O)cc2)c1 [Example 129]	≤ 500
Cc1cc(-c2ccc(S(C)(=O)=O)cc2)nc(NCc2cnn(C)c2)c1C#N [Example 131]	≤ 500
CCc1cc(OCc2cccnc2C)nc(-c2ccc(S(C)(=O)=O)cc2)c1 [Example 133]	≤ 500
CCc1cc(OCc2ccc(C)nc2)nc(-c2ccc(S(C)(=O)=O)cc2)c1 [Example 134]	≤ 500
CCc1cc(OCc2cccc(C)n2)nc(-c2ccc(S(C)(=O)=O)cc2)c1 [Example 135]	≤ 500
CCc1cc(NCc2cnn(C)c2C)nc(-c2ccc(S(C)(=O)=O)cc2)c1 [Example 139]	≤ 500
CCc1cc(NCc2nc(C)cs2)nc(-c2ccc(S(C)(=O)=O)cc2)c1 [Example 142]	≤ 500
CCc1cc(-c2ccc(S(C)(=O)=O)cc2)nc(NCc2cnn(C)c2)c1F [Example 143]	≤ 500
CCc1cc(NCc2cnn(CF)c2)nc(-c2ccc(S(C)(=O)=O)cc2)c1 [Example 144]	≤ 500
Cc1cc(-c2ccc(S(C)(=O)=O)cc2)nc(NCc2cnn(C)c2)c1Cl [Example 147]	≤ 500
CCc1cc(-c2ccc(S(C)(=O)=O)cc2)nc(NCc2ccccc2)c1C#N [Example 148]	≤ 500
Cc1ccc(COc2nc(-c3ccc(S(C)(=O)=O)cc3)cc(C)c2C#N)cn1 [Example 149]	≤ 500
CS(=O)(=O)c1ccc(-c2cc(C(F)(F)F)cc(Oc3cccnc3)n2)cc1 [Example 150]	≤ 500
CC(C)(C)c1cc(NCc2ccccc2)nc(-c2ccc(S(C)(=O)=O)cc2)c1 [Example 151]	≤ 500
CS(=O)(=O)c1ccc(-c2cc(C(F)(F)F)cc(NCc3ncc[nH]3)n2)cc1 [Example 153]	≤ 500
CCOc1ccc(Nc2cc(CC)cc(-c3ccc(S(C)(=O)=O)cc3)n2)cc1 [Example 154]	≤ 500
Cc1cc(OCc2ccc(C)nc2)nc(-c2ccc(S(C)(=O)=O)cc2)c1 [Example 158]	≤ 500
Cc1ncccc1Nc1cc(C(F)(F)F)cc(-c2ccc(S(C)(=O)=O)cc2)n1 [Example 160]	≤ 500
Cc1cccc(Nc2cc(C(F)(F)F)cc(-c3ccc(S(C)(=O)=O)cc3)n2)n1 [Example 162]	≤ 500
Cc1ccc(Nc2cc(C(F)(F)F)cc(-c3ccc(S(C)(=O)=O)cc3)n2)cn1 [Example 163]	≤ 500

SMILES	IC50 [nM]
CS(=O)(=O)c1ccc(-c2cc(C(F)(F)F)cc(OCc3ccccn3)n2)cc1 [Example 164, 2-[4-(methylsulfonyl)phenyl]-6-[(2-pyridinylmethyl)oxy]-4-(trifluoromethyl)pyridine]	≤ 500
Cc1ncccc1Oc1cc(C(F)(F)F)cc(-c2ccc(S(C)(=O)=O)cc2)n1 [Example 165]	≤ 500
CS(=O)(=O)c1ccc(-c2cc(C(F)(F)F)cc(OCc3cccnc3)n2)cc1 [Example 166]	≤ 500
Cc1ccc(Oc2cc(C(F)(F)F)cc(-c3ccc(S(C)(=O)=O)cc3)n2)cn1 [Example 167]	≤ 500
CS(=O)(=O)c1ccc(-c2cc(C(F)(F)F)cc(NCc3cnccn3)n2)cc1 [Example 168]	≤ 500
CS(=O)(=O)c1ccc(-c2cc(C(F)(F)F)cc(Nc3ccc(F)cc3)n2)cc1 [Example 169]	≤ 500
CN(Cc1ccco1)c1cc(C(F)(F)F)cc(-c2ccc(S(C)(=O)=O)cc2)n1 [Example 170]	≤ 500
Cn1cc(CNc2cc(C(F)(F)F)cc(-c3ccc(S(C)(=O)=O)cc3)n2)cn1 [Example 171]	≤ 500
Cn1ncnc1CNc1cc(C(F)(F)F)cc(-c2ccc(S(C)(=O)=O)cc2)n1 [Example 173]	≤ 500
CS(=O)(=O)c1ccc(-c2cc(C(F)(F)F)cc(NCc3cccs3)n2)cc1 [Example 174]	≤ 500
CS(=O)(=O)c1ccc(-c2cc(C(F)(F)F)cc(NCC3CCOCC3)n2)cc1 [Example 175]	≤ 500
Cc1ccc(Nc2cc(C(F)(F)F)cc(-c3ccc(S(C)(=O)=O)cc3)n2)c(C)n1 [Example 178]	≤ 500
Cc1cccc(CNc2cc(C(F)(F)F)cc(-c3ccc(S(C)(=O)=O)cc3)n2)n1 [Example 180]	≤ 500
Cc1ccc(Oc2cc(C(F)(F)F)cc(-c3ccc(S(C)(=O)=O)cc3)n2)c(C)n1 [Example 183]	≤ 500
Cc1cccc(COc2cc(C(F)(F)F)cc(-c3ccc(S(C)(=O)=O)cc3)n2)n1 [Example 184]	≤ 500
Cc1ncccc1COc1cc(C(F)(F)F)cc(-c2ccc(S(C)(=O)=O)cc2)n1 [Example 185]	≤ 500
Cc1ccc(COc2cc(C(F)(F)F)cc(-c3ccc(S(C)(=O)=O)cc3)n2)cn1 [Example 186]	≤ 500
Cc1nn(C)cc1CNc1cc(C(F)(F)F)cc(-c2ccc(S(C)(=O)=O)cc2)n1 [Example 187]	≤ 500
Cc1c(CNc2cc(C(F)(F)F)cc(-c3ccc(S(C)(=O)=O)cc3)n2)cnn1C [Example 188]	≤ 500
Cc1csc(CNc2cc(C(F)(F)F)cc(-c3ccc(S(C)(=O)=O)cc3)n2)n1 [Example 189]	≤ 500
CS(=O)(=O)c1ccc(-c2cc(C(F)(F)F)cc(Oc3cncc(Cl)c3)n2)cc1 [Example 190]	≤ 500
CS(=O)(=O)c1ccc(-c2cc(C(F)(F)F)cc(Nc3ccc(Cl)nn3)n2)cc1 [Example 191]	≤ 500
